The source of these data is patent US10842878B2, “Degradation of Bruton's tyrosine kinase (BTK) by conjugation of BTK inhibitors with E3 ligase ligand and methods of use” (Dana-Farber Cancer Institute, Inc., priority 2016, dated 2020).

The target in this test is T1, BTK (Homo sapiens, UniProt Q06187).
T1 construct: protein lysate harvest and Western blotting analysis of BTK, Aurora A, and α-tubulin levels; endogenous in cells; host or cells: MOLM14 cells
Put plainly: Cell assay and Western blotting analysis of BTK levels in MOLM14 cells. Conditions: MOLM14 cells treated with 40 nM, 200 nM, 1 μM for 4 or 12 hours (FIG. 1: 4 hours); DMSO control; Aurora A and α-tubulin also blotted. It is filed as cell-based. As to the method: MOLM14 cells were treated with DMSO or with 40 nM, 200 nM, 1 μM of a BTK bifunctional inhibitor compound of the disclosure for 4 or 12 hours, followed by protein lysate harvest and Western blotting analysis of BTK, Aurora A, and α-tubulin levels.
Cells are lysed using RIPA buffer supplemented with protease inhibitor cocktail (Roche) and phosSTOP phosphatase inhibitor cocktail (Roche) on ice for 15 minutes. The lysates are spun at 20,000×g for 15 minutes on 4° C. and protein concentration is determined using BCA assay (Pierce). The following primary antibodies are used in this study: BTK, GADPH, tubulin and Aurora A kinase (all from Cell Signaling Technology). Blots are imaged using fluorescence-labeled secondary antibodies (LI-COR) on the OdysseyCLxImager (LI-COR). Quantification of band intensities is performed using OdysseyCLx software (LI-COR).
(Immunoblotting shows a protein as a band on a membrane.)

T1 sequence (Q06187 whole entry): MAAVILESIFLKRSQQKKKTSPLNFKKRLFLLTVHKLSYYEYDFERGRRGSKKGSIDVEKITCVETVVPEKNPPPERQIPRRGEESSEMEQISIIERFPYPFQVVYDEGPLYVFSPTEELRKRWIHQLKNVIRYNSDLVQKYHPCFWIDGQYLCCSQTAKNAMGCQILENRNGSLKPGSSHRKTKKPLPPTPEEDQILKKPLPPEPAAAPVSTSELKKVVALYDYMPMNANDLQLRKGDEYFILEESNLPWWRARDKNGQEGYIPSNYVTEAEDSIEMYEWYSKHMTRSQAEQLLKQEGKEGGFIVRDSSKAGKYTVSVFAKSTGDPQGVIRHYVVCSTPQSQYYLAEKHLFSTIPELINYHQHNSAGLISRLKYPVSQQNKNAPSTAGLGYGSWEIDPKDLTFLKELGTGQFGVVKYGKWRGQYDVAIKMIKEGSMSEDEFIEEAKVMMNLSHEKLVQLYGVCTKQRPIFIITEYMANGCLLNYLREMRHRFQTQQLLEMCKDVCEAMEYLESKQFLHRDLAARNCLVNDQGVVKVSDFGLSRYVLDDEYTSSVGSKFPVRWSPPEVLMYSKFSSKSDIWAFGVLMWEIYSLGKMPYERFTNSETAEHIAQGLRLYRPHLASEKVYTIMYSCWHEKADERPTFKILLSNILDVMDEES

Regarding `Cc1c(NC(=O)c2ccc(C(C)(C)C)cc2)cccc1-c1cn(C)c(=O)c(Nc2ccc(C(=O)N3CCN(CCOCCOCCNC(=O)CNc4cccc5c4C(=O)N(C4CCC(=O)NC4=O)C5=O)CC3)cc2)n1` (stereo not shown) [Compound I-5, 4-(tert-butyl)-N-(3-(6-((4-(4-(2-(2-(2-(2-((2-(2,6-dioxopiperidin-3-yl)-1,3-dioxoisoindolin-4-yl)amino)acetamido)ethoxy)ethoxy)ethyl)piperazine-1-carbonyl)phenyl)amino)-4-methyl-5-oxo-4,5-dihydropyrazin-2-yl)-2-methylphenyl)benzamide], the “BTK degradation (Western blotting analysis of BTK levels)” value was “showed BTK degradation”.
